Experimental findings from PubChem BioAssay (NCI) are described below.

Molecules are shown by their SMILES.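 Each compound was tested at five concentrations against cells in 96-well plates for 48 hours. Here, GI50 denotes the concentration required for 50% inhibition of growth. TGI is the concentration that stops growth completely.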

Common to all, as to assay: NCI tumour cell line growth inhibition, 48 h
Test [1] deals with OVCAR-4 ovarian.
Test [2] has as its system UACC-62 melanoma.
For test [3], the system named is SR leukemia.
Test [4] concerns U251 CNS.
Test [5] concerns NCI-H23 lung.
The test system of test [6] is SF-268 CNS.
Test [7] deals with SK-MEL-28 melanoma.
For test [8], the system named is K-562 leukemia.
Test [9] deals with SF-295 CNS.
Test [10] relates to RPMI-8226 leukemia.

Regarding `O=C(CCCSc1nc(-c2ccc(Cl)cc2)cc(-c2ccc(Cl)cc2)n1)NO`, the GI50 in [1] is 0.603 µM; in [2], 0.946 µM; in [3] it was 0.339 µM; in test [4], 0.693 µM; in [5], 1.63 µM; in test [6], 1.21 µM. Further, the GI50 in [7] was 3.15 µM; in test [8], 0.727 µM; in [9], 1.17 µM; in test [10] it was 1.38 µM. Moreover, the TGI in test [1] worked out at 14.1 µM; in [2] it was 3.1 µM; in [3], 13 µM; in [4] it was 13 µM; in [5] it was 10.4 µM; in test [6], 7.72 µM. Moreover, the TGI in test [7] was 17 µM; in test [8], over 100 µM; in [9], 6.9 µM; in test [10], 36.7 µM.

Consider `COc1cc2c3c(n(CCCBr)c(=O)c2cc1OC)-c1ccc(NC(C)=O)cc1C3=O`, for which the GI50 in test [1] is 32.3 µM; in test [2], 2.1 µM; in test [3], 0.574 µM; in test [4], 1.17 µM; in test [5] it was 11.8 µM; in [6], 2.11 µM. Further, the GI50 in test [7] is 40.5 µM; in test [8], 3.84 µM; in test [9] it was 0.828 µM; in test [10] it was 5.28 µM. Moreover, the TGI in test [1] is over 100 µM; in [2], 15.7 µM; in test [3] it was 12.6 µM; in test [4], 44.1 µM; in [5], 46.4 µM; in test [6], over 100 µM. In addition, the TGI is over 100 µM in test [7], 28.3 µM in test [8], 11.5 µM in [9] and 27.2 µM in test [10].

As to `NCCCNCCSSCCCCS(=O)O`, the TGI is 28.2 µM in [1]; 34.8 µM in [2]; 29.3 µM in test [3]; over 100 µM in test [4]; 43.5 µM in test [5]; 40.6 µM in test [6]. For the same compound, the TGI in test [7] is 55.2 µM; in [8] it was over 100 µM; in [9], over 100 µM; in test [10], over 100 µM.

As to `COc1ccc(OC(=O)O[C@H]2[C@H](O[C@H]3[C@@H](O)COC(O[C@H]4C[C@H]5[C@@H]6CC=C7C[C@@H](O)CC[C@]7(C)[C@H]6CC[C@]5(C)[C@H]4[C@H](C)C(=O)CCC(C)C)[C@@H]3OC(C)=O)OC[C@@H](O)[C@@H]2O)cc1` (stereo partly specified), the GI50 is 1.12 µM in [1]; 0.0171 µM in [2]; 0.0102 µM in [3]; 0.0121 µM in [4]; 0.966 µM in test [5]; 0.042 µM in test [6]. In addition, the GI50 in [7] was 0.0185 µM; in test [8] it was under 0.01 µM; in [9] it was under 0.01 µM; in test [10] it was under 0.01 µM. The TGI in test [1] is 20.3 µM; in test [2], 0.0516 µM; in test [3], 21.4 µM; in test [4] it was 16.2 µM; in test [5], 19.1 µM; in [6], 6.99 µM. Moreover, the TGI in [7] is 0.155 µM; in test [8] it was 10.6 µM; in [9], 0.0193 µM; in test [10] it was 0.0321 µM.

With `CC[C@H](C)[C@H](NC(=O)[C@H]1CCCCN1C)C(=O)N(C)[C@H](CCc1nc(C(=O)N[C@@H](Cc2ccccc2)C[C@H](C)C(=O)OC)cs1)C(C)C`, the GI50 in test [1] is 1.36 µM; in test [2], 0.0986 µM; in test [3] it was 0.0726 µM; in test [4] it was 0.345 µM; in test [5], 0.866 µM; in test [6] it was 1.03 µM. Also, the GI50 in test [7] is 2.06 µM; in test [8] it was 0.121 µM; in [9], 0.459 µM; in test [10] it was 0.0929 µM. The TGI is over 25 µM in test [1]; over 25 µM in [2]; 10.8 µM in test [3]; over 25 µM in [4]; over 25 µM in test [5]; over 25 µM in test [6]. Further, the TGI in [7] was over 25 µM; in test [8], over 25 µM; in [9], over 25 µM; in test [10], 8.17 µM.

As for `COC(=O)C1=C(c2ccc3c(c2)OCO3)O[C@H](c2ccc3c(c2)OCO3)[C@H]1COC(C)=O`, the TGI in test [1], in test [2], in test [3], in test [4], in test [5] and in test [6] was over 100 µM each time. Moreover, the TGI in [7], in test [8], in test [9] and in [10] was over 100 µM in each case.

`CCCCCCCCCCCCCCCCOP(=O)(O)Oc1ccc(/C=C\c2ccc(OP(=O)(O)OCCCCCCCCCCCCCCCC)cc2)cc1`: the TGI in test [1] was over 100 µM; in [2], over 100 µM; in test [3], 47.1 µM; in test [4], over 100 µM; in test [5], over 100 µM; in test [6] it was over 100 µM. Besides, the TGI is over 100 µM in test [7], over 100 µM in test [8], over 100 µM in test [9] and 80 µM in test [10].

With `COc1cc(C2c3cc4c(cc3[C@H](OCCN(C)C)[C@@H]3COC(=O)C23)OCO4)cc(OC)c1O` (stereo partly specified), the TGI worked out at 4.97 µM in [1]; 0.496 µM in test [2]; 0.778 µM in test [3]; 0.898 µM in test [4]; 1.3 µM in [5]; 2.97 µM in test [6]. Moreover, the TGI in test [7] is 4.51 µM; in [8] it was 15.9 µM; in test [9], 0.583 µM; in test [10], over 100 µM. For the same compound, the GI50 in [4] is 0.0409 µM.

Regarding `CCOC(=O)[C@H]1Nc2ccc(C)cc2C2c3ccccc3CC21` (stereo partly specified), the TGI in test [1], in test [2], in test [3], in test [4], in [5] and in [6] was over 100 µM in each case. Also, the TGI in test [7], in [8], in test [9] and in test [10] was over 100 µM throughout.
